Assay results taken from patent US7563774B2, “Combination of FBPase inhibitors and antidiabetic agents useful for the treatment of diabetes” (Metabasis Therapeutics, Inc., priority 2000, dated 2009).
Each block holds one molecule with its values, some of them ahead of it.

Tests used:
[1] = molecular target: T1, rat liver FBPase (Rattus norvegicus, UniProt P19112); assay: Inhibition of rat liver FBPase (Example B); type: biochemical
T1 construct: made in house; host or cells: E. coli BL21
T1 sequence (P19112 2-363 limits assumed): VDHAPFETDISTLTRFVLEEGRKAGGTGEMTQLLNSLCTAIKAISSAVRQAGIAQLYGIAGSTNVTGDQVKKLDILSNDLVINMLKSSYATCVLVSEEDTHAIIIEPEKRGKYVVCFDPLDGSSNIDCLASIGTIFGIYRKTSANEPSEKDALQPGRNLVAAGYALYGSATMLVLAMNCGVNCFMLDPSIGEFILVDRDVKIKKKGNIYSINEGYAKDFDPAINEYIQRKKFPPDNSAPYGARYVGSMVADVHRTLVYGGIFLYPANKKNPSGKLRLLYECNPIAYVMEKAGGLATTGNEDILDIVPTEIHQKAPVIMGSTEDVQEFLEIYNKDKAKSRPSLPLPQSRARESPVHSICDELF

[2] = molecular target: T2, human liver FBPase (Homo sapiens, UniProt P09467); assay: Inhibition of human liver FBPase (Example A); type: biochemical
T2 construct: made in house; host or cells: E. coli BL21
T2 sequence (P09467 2-338 limits assumed): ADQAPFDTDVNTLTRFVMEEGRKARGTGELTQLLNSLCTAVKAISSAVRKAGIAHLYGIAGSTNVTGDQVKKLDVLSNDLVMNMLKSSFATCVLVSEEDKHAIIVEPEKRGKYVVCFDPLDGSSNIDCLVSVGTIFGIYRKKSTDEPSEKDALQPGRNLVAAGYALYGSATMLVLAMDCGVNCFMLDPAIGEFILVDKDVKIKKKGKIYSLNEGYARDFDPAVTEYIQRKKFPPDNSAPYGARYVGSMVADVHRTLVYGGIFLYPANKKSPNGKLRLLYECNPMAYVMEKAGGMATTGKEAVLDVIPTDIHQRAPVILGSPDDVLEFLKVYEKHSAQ

[3] = molecular target: T3, mouse liver FBPase (Mus musculus, UniProt Q9QXD6); assay: Inhibition of mouse liver FBPase (Example B); type: biochemical
T3 construct: This partially purified fraction was used for enzyme assays; from tissue; host or cells: mouse liver (45-75% ammonium sulfate fraction of homogenate)
T3 sequence (Q9QXD6 2-338 limits assumed): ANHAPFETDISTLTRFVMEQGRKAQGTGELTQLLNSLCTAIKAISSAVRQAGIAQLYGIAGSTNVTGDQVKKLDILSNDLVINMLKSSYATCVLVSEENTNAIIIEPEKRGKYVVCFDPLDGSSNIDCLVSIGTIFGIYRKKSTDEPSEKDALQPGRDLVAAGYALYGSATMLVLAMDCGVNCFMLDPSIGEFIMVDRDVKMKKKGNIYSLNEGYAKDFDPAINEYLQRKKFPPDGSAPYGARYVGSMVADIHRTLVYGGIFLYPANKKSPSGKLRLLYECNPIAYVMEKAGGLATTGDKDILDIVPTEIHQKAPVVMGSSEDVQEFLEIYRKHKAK

[4] = tested on: Db/db or ob/ob mice; assay: Acute combination treatment of a glycogen phosphorylase inhibitor and an FBPase inhibitor in db/db or ob/ob mice (Example FF); type: in vivo, mouse; details: 0.5 to 300 mg/kg p.o.
Procedure: Db/db or ob/ob mice are purchased at 5 weeks of age from Jackson Laboratories (Bar Harbor, Me.). The mice are maintained under standard vivarium conditions (24-26° C., 12-hour light cycle, 12-hour dark cycle) and receive standard chow and water ad libitum. At more than 10 weeks of age, animals are divided into 4 groups (n=5 to 7/group). […] Food is made available after treatment. Blood glucose levels in tail vein samples are measured by means of standard manual or automated methods.

[5] = tested on: Sprague Dawley rats; assay: Oral glucose lowering in overnight fasted Sprague Dawley rats (Example G); type: in vivo, rat; details: 4 h
Procedure: Oral efficacy of Compound J was assessed in overnight fasted Sprague Dawley rats. […] At 1.5 h or 4 h post drug administration, a blood sample was taken from the tail vein and analyzed for blood glucose by means of an automated glucose analyzer (HemoCue, HemoCue Inc, Mission Viejo, Calif.).

[6] = tested on: C57BL/KsJ db/db mice; assay: Acute combination treatment of insulin and Compound G in db/db mice (Example Z); type: in vivo, mouse
Procedure: Male C57BL/KsJ db/db mice were purchased at 5 weeks of age from Clea Japan, Inc. (Tokyo, Japan). The mice were maintained under standard vivarium conditions (24-26° C., 12-hour light cycle, 12-hour dark cycle) and received standard chow and water ad libitum. At 20 weeks of age, animals were divided into 4 groups (n=6/group). The treatment groups were control, compound G, insulin, and the combination of compound G and insulin. […] Insulin (human recombinant insulin, Penfill R300, Novo Nordisk, Denmark) was injected subcutaneously at a dose of 1.5 U/kg. Food was removed after treatment. Blood glucose levels in tail vein samples were measured by means of a Glucoloader-F, an automatic glucose analyzer, (A&T Co., Ltd., Tokyo, Japan).

[7] = tested on: C57BL/KsJ db/db mice; assay: Chronic combination treatment of insulin and Compound G in db/db mice (Example AA); type: in vivo, mouse; details: db/db mice, 3 weeks
Procedure: Male C57BL/KsJ db/db mice were purchased at 5 weeks of age from Clea Japan, Inc. (Tokyo, Japan). The mice were maintained under standard vivarium conditions (24-26° C., 12-hour light cycle, 12-hour dark cycle) and received standard chow and water ad libitum. At 16 weeks of age, animals were divided into 2 groups (n=5 or 9-10/group). Both groups were subcutaneously injected with human recombinant insulin (Penfill N300, Novo Nordisk, Denmark) on a daily basis to adjust plasma glucose levels to the target range of 250 to 300 mg/dL.

[8] = tested on: db/db mice; assay: Glucose lowering in the db/db mouse (Example V); type: in vivo; details: last treatment day (day 18)
Procedure: Treatment was for 18 days. […] Differences between groups were evaluated by the Student's t-test. Results are considered significant with p<0.05.

[9] = tested on: Zucker Diabetic Fatty (ZDF) rat; assay: Glucose lowering in the ZDF rat (Example W); type: in vivo
Source text: The Zucker Diabetic Fatty (ZDF) rat is widely used as a model for human NIDDM as the progression of the disease in these rodents is similar to that described for human […] patients. […] Clark J B, Palmer C J (1982) Diabetes 30: 126A Terrettaz J, Jeanrenaud B (1983) Endocrinology 112: 1346-1351.

[10] = tested on: streptozotocin-induced diabetic rat; assay: Chronic combination treatment of a fatty acid oxidation inhibitor and an FBPase inhibitor in the streptozotocin-induced diabetic rat (Example JJ); type: in vivo; details: etomoxir 3-300 mg/kg s.c., Compound J 0.2% w/w food admixture, 2-6 weeks
Procedure: Male Sprague-Dawley rats (Charles Rivers Laboratories) weighing approximately 120 g at the beginning of the study are housed under standard vivarium conditions and fed standard chow (Purina 5001). Rats are rendered diabetic by injection of 55 mg/kg body weight of streptozotocin (STZ) in citrate buffer, pH 4.7. […] Drug treatment is continued for 2-6 weeks. Blood glucose levels are monitored at regular intervals during the treatment period. At the end of the study, rats are anesthetized and instrumented with jugular vein and carotid artery catheters. Hepatic glucose production is measured using a primed constant infusion of (^3H)-6-glucose. Blood samples are taken after two hours, and the specific activity of glucose measured by […]. Hepatic glucose production rater are calculated by standard methods.

[11] = tested on: streptozotocin diabetic Sprague Dawley rats; assay: Acute combination treatment of an FBPase inhibitor and an amylin agonist in streptozotocin diabetic rats (Example HH); type: in vivo, rat; details: pramlintide 10 micrograms i.v., Compound J 300 mg/kg p.o.
Procedure: Animals are then gavaged with 1 mL 50% glucose, and allowed ad libitum access to food. Blood glucose is collected from the tail vein at 0, 30, 60, 120, 180, and 240 minutes following glucose administration.

IC50 [1]: 25 µM | IC50 [2]: 1.3 µM | IC50 [3]: 15 µM
Structure (SMILES): Nc1ncnc2c1ncn2[C@@H]1O[C@H](COP(=O)(O)O)[C@@H](O)[C@H]1O [AMP]

Structure (SMILES): CN(C)C(=O)[C@H](O)[C@H](Cc1ccccc1)NC(=O)c1cc2cc(Cl)ccc2[nH]1 [CP-91149, reference compound]
blood glucose lowering [4]: significantly lower blood glucose relative to control values

Structure (SMILES): CSc1sc(N)nc1-c1ccc(P(=O)(O)O)o1 [Compound G, 2-Amino-5-methylthio-4-[2-(5-phosphono)furanyl]thiazole]
Glucose Lowering, % ([5]; Compound G 10 mg/kg p.o.): 48% | Glucose Lowering, % ([5]; Compound G 30 mg/kg p.o.): >70% | Plasma Glucose, % of pretreatment values ([6]; after 1 hour): (84.2 +/− 1.9) % | Plasma Glucose ([6]; after 1 hour, Compound G 200 mg/kg p.o., insulin 1.5 U/kg s.c.): 650.8 ± 14.8 mg/dL | Plasma Glucose ([6]; after 4 hours): 373.7 ± 24.7 mg/dL | Plasma Glucose, % of pretreatment values ([6]; after 4 hours): (48.6 +/− 4.0) % | Plasma Glucose ([6]; after […]): 459.7 ± 11.5 mg/dL | Plasma Glucose, % of pretreatment values ([6]; after […]): (59.6 +/− 2.3) % | Plasma Glucose ([6]; before (0 hour)): 774.0 ± 18.3 mg/dL | Plasma Glucose, % of pretreatment values ([6]; before (0 hour)): (100.0 +/− 0.0) % | plasma glucose lowering ([6]; db/db mice, acute): progressively decreased plasma glucose levels | insulin dose required to lower plasma glucose to the target range [7]: remarkably decreased the insulin dose required | blood glucose levels versus control group [8]: significantly lower than those in the control group | glycemic control [9]: significantly improved glycemic control | Blood Glucose ([9]; 0.2% food admixture, Day 14): 530 ± 48 mg/dL

Structure (SMILES): CCOC(=O)[C@@]1(CCCCCCOc2ccc(Cl)cc2)CO1 [etomoxir, reference compound]
Blood Glucose [10]: lowered significantly

Structure (SMILES): CC[C@H](C)[C@H](NC(=O)[C@@H]1CCCN1C(=O)CNC(=O)[C@H](Cc1ccccc1)NC(=O)[C@H](CC(N)=O)NC(=O)[C@H](CC(N)=O)NC(=O)[C@H](CO)NC(=O)[C@H](CO)NC(=O)[C@H](Cc1c[nH]cn1)NC(=O)[C@@H](NC(=O)[C@H](CC(C)C)NC(=O)[C@H](Cc1ccccc1)NC(=O)[C@H](CC(N)=O)NC(=O)[C@H](C)NC(=O)[C@H](CC(C)C)NC(=O)[C@H](CCCNC(=N)N)NC(=O)[C@H](CCC(N)=O)NC(=O)[C@@H](NC(=O)[C@H](C)NC(=O)[C@@H]1CSSC[C@H](NC(=O)[C@@H](N)CCCCN)C(=O)N[C@@H](CC(N)=O)C(=O)N[C@@H]([C@@H](C)O)C(=O)N[C@@H](C)C(=O)N[C@@H]([C@@H](C)O)C(=O)N1)[C@@H](C)O)C(C)C)C(=O)N[C@@H](CC(C)C)C(=O)N1CCC[C@H]1C(=O)N1CCC[C@H]1C(=O)N[C@H](C(=O)N[C@@H](CC(N)=O)C(=O)N[C@H](C(=O)NCC(=O)N[C@@H](CO)C(=O)N[C@@H](CC(N)=O)C(=O)N[C@H](C(=O)N[C@@H](Cc1ccc(O)cc1)C(N)=O)[C@@H](C)O)C(C)C)[C@@H](C)O [pramlintide, reference compound]
postprandial glucose excursion [11]: attenuated the postprandial glucose excursion
